Two compounds from publication PMC3930583 (PLoS Pathogens, 2014) can be followed below.

Assay [1] addresses T1, GST-AvrBsT (Xanthomonas euvesicatoria, UniProt A0ABS8LK00). The format is biochemical.
For assay [2], the target named is T1, GST-AvrBsT. The assay is classed as biochemical. The source holds these as a separate data set.

As for `CC(=O)SCCNC(=O)CCNC(=O)[C@H](O)C(C)(C)COP(=O)(O)OP(=O)(O)OC[C@H]1O[C@@H](n2cnc3c(N)ncnc32)[C@H](O)[C@@H]1OP(=O)(O)O` [14C-acetyl-coenzyme A], the “14C autoacetylation, SDS-PAGE autoradiography” value at GST-AvrBsT [1] was “Wild-type GST-AvrBsT activity resulted in auto-acetylation of the enzyme and trans-acetylation of GST-ACIP1”. With `O=P(O)(O)O[C@H]1[C@H](OP(=O)(O)O)[C@@H](OP(=O)(O)O)[C@H](OP(=O)(O)O)[C@@H](OP(=O)(O)O)[C@H]1OP(=O)(O)O` [inositol hexakisphosphate], the “14C autoacetylation with and without IP6, autoradiography” value on GST-AvrBsT [2] was “Auto-acetylation of GST-AvrBsT was detected in the presence of IP6 but not its absence”.
